Where a name gives a salt, the structure may show the parent alone.
Tests used:
[1] = biological target: T1, nAChRs comprised of α4 and β2 subunits (Rattus norvegicus, UniProt P09483+P12390); test: In vitro inhibition of 3H-cytisine binding; settings: cerebral cortex homogenate from male Wistar rats; 3H-cytisine 1 nM; 90 min at 2° C.
T1 construct: Cerebral corticies from male Wistar rats (150-250 g) are homogenized; from tissue; host or cells: rat cerebral cortex membrane homogenate
Experimental: The predominant subtype with high affinity for nicotine is comprised of α4 and β2 subunits. nAChRs of the latter type can selectively be labelled by the nicotine agonist ^3H-cytisine.
Cerebral corticies from male Wistar rats (150-250 g) are homogenized for 20 sec in 15 ml Tris, HCl (50 mM, pH 7.4) containing 120 mM NaCl, 5 mM KCl, 1 mM MgCl2 and 2.5 mM CaCl2 using an Ultra-Turrax homogenizer. The homogenate is centrifuged at 27,000×g for 10 min. The supernatant is discarded and the pellet is resuspended in fresh buffer and centrifuged a second time. The final pellet is resuspended in fresh buffer (35 ml per g of original tissue) and used for binding assays.
Aliquots of 500 μl homogenate are added to 25 μl of test solution and 25 μl of ^3H-cytisine (1 nM, final concentration), mixed and incubated for 90 min at 2° C. Non-specific binding is determined using (−)-nicotine (100 μM, final concentration). After incubation the samples are added 5 ml of ice-cold buffer and poured directly onto Whatman GF/C glass fibre filters under suction and immediately washed with 2×5 ml ice-cold buffer. The amount of radioactivity on the filters is determined by conventional liquid scintillation counting. Specific binding is total binding minus non-specific binding.

serotonin transporter = biological target: T2, serotonin transporter (Rattus norvegicus, UniProt P31652); test: In vitro inhibition of 3H-5-hydroxytryptamine (3H-5-HT, serotonin) uptake in cortical synaptosomes; format: biochemical; settings: cortical synaptosomes from male Wistar rats; 3H-5-HT 1 nM; 30 min at 37° C.
T2 construct: Cerebral cortices from male Wistar rats (150-200 g) are homogenized; from tissue; host or cells: rat cerebral cortex synaptosomes (P2 pellet)
T2 sequence (P31652 whole entry): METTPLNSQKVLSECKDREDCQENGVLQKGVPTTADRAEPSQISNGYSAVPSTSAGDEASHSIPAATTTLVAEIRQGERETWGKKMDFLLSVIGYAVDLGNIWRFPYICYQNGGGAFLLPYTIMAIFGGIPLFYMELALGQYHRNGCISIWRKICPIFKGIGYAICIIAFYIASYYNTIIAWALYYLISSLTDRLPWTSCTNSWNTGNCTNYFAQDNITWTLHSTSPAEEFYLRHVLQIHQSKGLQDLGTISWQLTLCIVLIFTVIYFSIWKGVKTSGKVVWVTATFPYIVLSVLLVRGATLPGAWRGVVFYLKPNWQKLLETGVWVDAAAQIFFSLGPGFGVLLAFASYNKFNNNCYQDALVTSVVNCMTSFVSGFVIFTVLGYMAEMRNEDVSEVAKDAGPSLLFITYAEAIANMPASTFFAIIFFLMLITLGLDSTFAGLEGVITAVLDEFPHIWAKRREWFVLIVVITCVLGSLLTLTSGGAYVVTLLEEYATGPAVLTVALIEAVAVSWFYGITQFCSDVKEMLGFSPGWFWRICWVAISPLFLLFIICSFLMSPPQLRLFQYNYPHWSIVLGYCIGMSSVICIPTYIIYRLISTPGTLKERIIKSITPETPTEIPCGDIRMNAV
Experimental: The activity of the serotonin transporter integral protein can be measured in vitro by synaptosomal uptake of ^3H-5-hydroxytryptamine.
Preparations are performed at 0-4° C. unless otherwise indicated. […] Monoamine oxidase activity will be inhibited in the presence of pargyline. The homogenate is centrifuged at 1000×g for 10 min. The resulting supernatant is then centrifuged at 27,000×g for 50 min and the supernatant is discarded.
Non-specific uptake is determined using citalopram (1 μM, final concentration). After incubation the samples are poured directly onto Whatman GF/C glass fibre filters under suction. The filters are then washed three times with 5 ml of ice-cold 0.9% (w/v) NaCl solution. The amount of radioactivity on the filters is determined by conventional liquid scintillation counting. Specific uptake is calculated as the difference between total uptake and non-specific uptake.

T1 sequence (P12390 25-500): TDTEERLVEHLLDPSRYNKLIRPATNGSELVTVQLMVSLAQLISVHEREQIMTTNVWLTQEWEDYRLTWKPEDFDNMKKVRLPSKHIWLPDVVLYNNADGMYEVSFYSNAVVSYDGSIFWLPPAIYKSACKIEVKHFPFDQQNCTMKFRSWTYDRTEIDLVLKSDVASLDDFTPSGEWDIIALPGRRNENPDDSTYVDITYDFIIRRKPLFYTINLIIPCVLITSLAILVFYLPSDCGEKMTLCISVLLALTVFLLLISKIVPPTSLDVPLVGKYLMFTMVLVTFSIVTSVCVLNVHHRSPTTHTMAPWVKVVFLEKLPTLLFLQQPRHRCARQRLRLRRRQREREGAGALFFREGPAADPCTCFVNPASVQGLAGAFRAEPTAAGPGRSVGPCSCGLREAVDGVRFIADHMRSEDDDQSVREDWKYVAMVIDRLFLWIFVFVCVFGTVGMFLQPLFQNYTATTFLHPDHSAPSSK
T1 sequence (P09483 31-630): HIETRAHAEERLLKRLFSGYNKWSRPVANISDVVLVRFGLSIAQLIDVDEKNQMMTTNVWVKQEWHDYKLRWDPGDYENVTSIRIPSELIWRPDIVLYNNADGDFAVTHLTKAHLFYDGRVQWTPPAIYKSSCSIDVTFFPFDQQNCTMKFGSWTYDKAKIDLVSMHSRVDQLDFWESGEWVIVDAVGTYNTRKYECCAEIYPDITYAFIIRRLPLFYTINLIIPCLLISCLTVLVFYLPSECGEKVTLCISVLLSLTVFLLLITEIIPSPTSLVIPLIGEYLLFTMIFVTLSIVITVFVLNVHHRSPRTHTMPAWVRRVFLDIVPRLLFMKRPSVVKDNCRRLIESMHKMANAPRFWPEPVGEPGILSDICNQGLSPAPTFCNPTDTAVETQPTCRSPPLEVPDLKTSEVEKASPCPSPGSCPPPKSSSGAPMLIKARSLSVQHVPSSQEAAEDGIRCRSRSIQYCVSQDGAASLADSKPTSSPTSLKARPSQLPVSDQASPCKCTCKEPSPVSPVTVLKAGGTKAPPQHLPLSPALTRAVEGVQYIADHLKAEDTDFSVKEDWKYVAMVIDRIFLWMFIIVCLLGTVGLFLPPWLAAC

Structure (SMILES)	melting point [°C]	other results
O=[N+]([O-])c1ccc2nc(N3CC4CC(CN(Cc5ccccc5)C4)C3)ccc2c1 (as salt: fumaric acid salt) [Compound C6, 3-Benzyl-7-(6-nitro-2-quinolinyl)-3,7-diazabicyclo-[3.3.1]-nonane]	168 to 172	–
Clc1ccc(N2CC3CNCC(C3)C2)nn1 [Compound F1, 3-H-7-(6-Chloro-3-pyridazinyl)-3,7-diazabicyclo-[3.3.1]-nonane]	–	IC50 [1]: 3 nM
CN1CC2CC(C1)CN(c1ccc(-c3ccccc3)nn1)C2 (as salt: fumaric acid salt)	213.9 to 220.8	–
Clc1cncc(N2CC3CC(CN(Cc4ccccc4)C3)C2)n1 (as salt: fumaric acid salt)	183.1 to 183.3	–
Clc1cncc(N2CC3CNCC(C3)C2)n1 [Compound F2, 3-H-7-(6-Chloro-2-pyrazinyl)-3,7-diazabicyclo-[3.3.1]-nonane]	–	IC50 [1]: 3.4 nM
O=[N+]([O-])c1ccc2nc(N3CC4CC(CN(Cc5ccccc5)C4)C3)ccc2c1 [Compound C6, 3-Benzyl-7-(6-nitro-2-quinolinyl)-3,7-diazabicyclo-[3.3.1]-nonane]	–	IC50 (serotonin transporter): 5.7 nM
c1ccc(CN2CC3CC(C2)CN(c2ccc4ccccc4n2)C3)cc1 (as salt: fumaric acid salt) [Compound C3, 3-Benzyl-7-(2-quinolinyl)-3,7-diazabicyclo-[3.3.1]-nonane]	56.1 to 56.8	–
C=CCN1CC2CC(C1)CN(c1ccc(-c3ccccc3)nn1)C2 (as salt: fumaric acid salt)	183.5 to 187.6	–
Clc1ccc(N2CC3CC(CN(Cc4ccccc4)C3)C2)nn1 (as salt: fumaric acid salt)	204 to 205	–
Clc1cncc(N2CC3CNCC(C3)C2)n1 (as salt: fumaric acid salt) [Compound F2, 3-H-7-(6-Chloro-2-pyrazinyl)-3,7-diazabicyclo-[3.3.1]-nonane]	180.3 to 181.9	–
c1ccc(CN2CC3CC(C2)CN(c2ccc4ccccc4n2)C3)cc1 [Compound C3, 3-Benzyl-7-(2-quinolinyl)-3,7-diazabicyclo-[3.3.1]-nonane]	–	IC50 (serotonin transporter): 22 nM
Clc1ccc(N2CC3CNCC(C3)C2)nn1 (as salt: fumaric acid salt) [Compound F1, 3-H-7-(6-Chloro-3-pyridazinyl)-3,7-diazabicyclo-[3.3.1]-nonane]	195.5 to 196.5	–

From US20040147505A1, “Novel heteroaryl-diazabicyclo alkanes as cns-modulators” (priority 2001, published 2004)
